According to publication PMC7732128, “Regulation of gene transcription by thyroid hormone receptor β agonists in clinical development for the treatment of non-alcoholic steatohepatitis (NASH)” (PLoS ONE, 2020):
Like-named read-outs stand apart in the source and are kept apart here.

Key:
[1] = test system: THR (THRSP RNA in PHH); experiment: Differential gene expression assay in primary human hepatocytes (PHH); format: cell-based; details: Hepatocyte, RT-qPCR, 24 hrs treatment, read-out: PHH EC50 Mean ± SEM
[2] = test system: THR (ANGPTL4, CPT1A, DIO1 RNA in Huh-7 cells); experiment: Differential gene expression assay in Huh-7 cells; format: cell-based, human; details: for EC50: Homo sapiens; for fold less potent than T3: CPT1A transcription in Huh-7
Protocol: Hepatoma-derived Huh-7 cells (JCRB Cell Bank, JCRB0403) were obtained directly from the repository, which performed cell line authentication via isozyme analysis and comprehensively tested for microbial contamination, viral contamination, and cross culture contamination. Cells were routinely cultured in DMEM (Corning, 10-013-CM) supplemented with 10% FBS and 1% P/S at 37°C and 5% CO2 until 80–90% confluency. Cells were then detached with 0.05% trypsin (Corning, 25-052-CV), resuspended in TH-free medium (DMEM supplemented with 10% TH-depleted FBS and 1% P/S), and seeded into collagen-coated, 96-well microplates (Corning, 354407) at 5.0 x 10^4 cells/well. After 24 hrs, the culture medium was replaced with treatment media. Cells were treated for 24 hrs. TH-depletion of the FBS via resin treatment was accomplished as previously described. All treatment media were made by mixing test compounds, serially diluted in DMSO, with TH-free medium (0.1% final DMSO concentration).
After 24 hrs in treatment media, both Huh-7 cells and PHH were processed with the TaqMan Fast Advanced Cells-to-Ct Kit (Invitrogen, A35378), according to the manufacturer’s protocol. Briefly, the treatment media was removed and the cells were washed with 50 μL cold 1X phosphate-buffered saline (Corning, 21-040-CM). Fifty μL lysis buffer containing DNase I was added to each well and the plate was incubated on a rotor at RT for 5 mins. Five μL stop solution was then added to each well and after another 2 mins incubation on a rotor at RT, the cell lysates were used for reverse transcription. The resulting cDNA was diluted 1:2 with nuclease-free, distilled water (Invitrogen, 10977015). Gene expression was measured using TaqMan Fast Advanced Master Mix (Applied Biosystems, 4444964) and the following TaqMan Gene Expression assays (Applied Biosystems, 4331182): 18S (Hs99999901_s1), ACTB (Hs01060665_g1), ANGPTL4 (Hs01101123_g1), CPT1A (Hs00912671_m1), DIO1 (Hs00174944_m1), TFG (Hs02832013_g1), THRA (Hs00268470_m1), and THRB (Hs00230861_m1). ACTB and TFG served as control housekeeping genes for Huh-7 assays and 18S and ACTB for PHH assays. Ten μL reactions were run on the qTOWER³ 84 (Analytik Jena). Relative quantification (RQ) of gene expression was calculated via the 2^−ΔΔCt method and dose-response curves were fitted by non-linear regression with variable slope. Statistical analysis was performed in GraphPad Prism 8.
We aimed to develop an in vitro, cell-based assay that is not only amenable to high throughput screening of compounds, but that can also more reliably recapitulate in vivo processes. Because activated THR may function as a transcription factor, we compared the action of THR agonists in a human hepatocyte-derived cell line and in primary human hepatocytes (PHH) by quantifying transcriptional changes resulting from compound treatment (Fig 2A). Cells were cultured in TH-depleted media for 24 hrs and then treated with compounds for 24 hrs. The RNA levels of THR target genes were then measured via RT-qPCR.

[3] = Huh-7, CPT1A RNA, RT-qPCR, 24 hrs treatment, read-out: Huh-7 EC50 Mean ± SEM

Row | EC50 [2, 3] [nM] | EC50 ([2]; Huh-7, 24 hrs, n = 2 (Fig 2C), read-out: mean EC50, ANGPTL4) [nM] | EC50 ([2]; Huh-7, 24 hrs, n = 2 (Fig 2C), read-out: mean EC50, CPT1A) [nM] | EC50 ([2]; Huh-7, 24 hrs, n = 2 (Fig 2C), read-out: mean EC50, DIO1) [nM] | Compound | EC50 [1] [nM] | fold less potent than T3 [2] | times weaker than VK2809A ([2]; Huh-7 assay) [times]
2 | 8.3 ± 2.2 |  |  |  | Cc1cc(OCP(=O)(O)O)cc(C)c1Cc1ccc(O)c(C(C)C)c1 [VK2809A] | 14.8 ± 10.7 | approximately 30 fold | 
3 | 589 ± 120 |  |  |  | Cc1cc(OCP2(=O)OCC[C@@H](c3cccc(Cl)c3)O2)cc(C)c1Cc1ccc(O)c(C(C)C)c1 (stereo partly drawn) [VK2809] | 18.7 ± 8.9 | ~2,000 fold | 71
